Measured values: patent US6387880B1, “Transdermal N-[N-[5-[4-(aminoiminomethly)phenyl]-1-oxopentyl]-L-α-aspartyl]-L-phenylalainine or its esters and their pharmaceutically acceptable salts” (G.D. Searle & Co., priority 1996, dated 2002)
Several values for one entry are separate records, joined by “and”; a condition that tells them apart may be missing. Equal entries are not always repeated.

Assay: Transdermal shaved rat model: radiolabelled compound in gel patch, amount recovered in urine and feces
Details: for Mg transported in Feces 24 Hrs / Mg transported in Feces 48 Hrs / Mg transported in Feces 72 Hrs / Mg transported in Urine 24 Hrs / Mg transported in Urine 48 Hrs / Mg transported in Urine 72 Hrs / Mg transported Total (feces + urine) / Mg transported Total, Mean: diethyl ester section, transdermal patch; for Mg transported in Feces 24 Hrs / Mg transported in Feces 48 Hrs / Mg transported in Feces 72 Hrs / Mg transported in Urine 24 Hrs / Mg transported in Urine 48 Hrs / Mg transported in Urine 72 Hrs / Mg transported Total (feces + urine): individual rats; for Mg transported Total (feces + urine): 72 Hrs; for Mg transported Total, Mean: mean of 4 rats
Description: Rats were anesthetized with N2O/O2 and [sequence] fluorocarbon anesthesia using a metering device (Quantifier VMC Anesthesia Machine, Matrix Media Inc.) The rat's back was carefully shaved using an electric razor the day before the transdermal experiment, and no abrasions in the skin surface were apparent.
Compound was applied to the skin using a Hilltop Chambers® transdermal delivery plastic device, in which the compound was contained in a 3% hydroxypropyl cellulose gel. The device was glued in place using cyanomethacrylate (Superbinder 495, Newark Electronics).
The aqueous formulation was 2% in N-[N-[5-[4-(aminoiminomethyl)phenyl]-1-oxopentyl]-L-α-aspartyl]-L-phenylalanine, monohydrochloride (10 mg N-[N-[5-[4-(aminoiminomethyl)phenyl]-1-oxopentyl]-L-α-aspartyl]-L-phenylalanine, monohydrochloride 0.5 ml gel/2.5 cm^2 patch). N(N-[5-[4-(aminoiminomethyl)-phenyl]-1-oxopentyl]-L-α-aspartyl]-L-phenylalanine, monohydrochloride was neutralized to pH 7.4 with KOH and buffered with 5 mM HEPES N-[2-hydroxyethyl] piperazine-N′-[2-ethanesulfonic acid]in 90% water, 10% propylene glycol. The N-methyl pyrrolidone formulation was made by dissolving 100 mg [^3H] N-[N-[5-[4-(aminoiminomethyl)phenyl]-1-oxopentyl]-L-α-aspartyl]-L-phenylalanine, monohydrochloride [15 microcuries] in 400 microliters N-methyl pyrrolidone. The 0.5 ml solution was made into a gel by adding 15 mg hydroxypropyl cellulose and incubating at ambient temperatures for 16 hours. Thirty microcuries [^3H] N-[N-[5-[4-(aminoiminomethyl)phenyl]-1-oxopentyl]-L-α-aspartyl]-L-phenylalanine, monohydrochloride (specific activity: 928 mCurie/mmol) was added as a tracer. The amount of compound in a sample was calculated from the number of counts detected and the specific radioactivity of the compound in the patch.
Urine and feces were collected daily after patch application as indicated in the Table I. Counts were combined to achieve the total amount delivered. Urine was counted directly by scintillography (Hionic Fluid, Packard Co., Mark Ill.), while feces, were processed by mechanical mixing in saline followed by oxidization of a dried aliquot to tritiated water in an oxidizer (Oxidizer Machine, Packard).

## CCOC(=O)C[C@H](NC(=O)CCCCc1ccc(C(=N)N)cc1)C(=O)N[C@@H](Cc1ccccc1)C(=O)OCC [N-[N-[5-[4-(aminoiminomethyl)phenyl]-1-oxopentyl]-L-α-aspartyl]-L-phenylalanine, diethyl ester]
2.5 cm^2 patch, rat
  average amount delivered: 4.6 ± 1.9 mg
Ethanol
  Mg transported in Feces 24 Hrs: 0.05 Mg and 0.01 Mg (2×) and 0.04 Mg
  Mg transported in Feces 48 Hrs: 3.16 Mg and 2.44 Mg and 4.09 Mg and 1.20 Mg
  Mg transported in Feces 72 Hrs: 1.51 Mg and 2.33 Mg and 1.67 Mg and 0.43 Mg
  Mg transported in Urine 24 Hrs: 0.02 Mg and 0.01 Mg and 0.00 Mg (2×)
  Mg transported in Urine 48 Hrs: 0.27 Mg and 0.12 Mg and 0.16 Mg and 0.13 Mg
  Mg transported in Urine 72 Hrs: 0.42 Mg and 0.19 Mg and 0.11 Mg (2×)
  Mg transported Total (feces + urine): 5.43 Mg and 5.10 Mg and 6.07 Mg and 1.88 Mg
  Mg transported Total, Mean: 4.62 Mg
Saline
  Mg transported in Feces 24 Hrs: 0.48 Mg and 0.67 Mg and 0.02 Mg (2×)
  Mg transported in Feces 48 Hrs: 4.59 Mg and 3.88 Mg and 0.61 Mg and 1.21 Mg
  Mg transported in Feces 72 Hrs: 0.84 Mg and 1.17 Mg and 0.49 Mg and 0.67 Mg
  Mg transported in Urine 24 Hrs: 0.19 Mg and 0.17 Mg and 0.00 Mg (2×)
  Mg transported in Urine 48 Hrs: 0.20 Mg and 0.16 Mg and 0.15 Mg and 0.13 Mg
  Mg transported in Urine 72 Hrs: 0.09 Mg and 0.11 Mg and 0.05 Mg and 0.10 Mg
  Mg transported Total (feces + urine): 6.39 Mg and 6.16 Mg and 1.32 Mg and 2.09 Mg
  Mg transported Total, Mean: 3.99 Mg
